# Test results published in ChEMBL document CHEMBL1921760, “Design, synthesis and biological evaluation of 6-pyridylmethylaminopurines as CDK inhibitors” (Bioorg Med Chem, 2011).
# Target: Mitogen-activated protein kinase 1 (Homo sapiens, UniProt P28482)
# Assay: Inhibition of ERK2
# Conditions: not given
# Sequence of Mitogen-activated protein kinase 1 (P28482 whole entry): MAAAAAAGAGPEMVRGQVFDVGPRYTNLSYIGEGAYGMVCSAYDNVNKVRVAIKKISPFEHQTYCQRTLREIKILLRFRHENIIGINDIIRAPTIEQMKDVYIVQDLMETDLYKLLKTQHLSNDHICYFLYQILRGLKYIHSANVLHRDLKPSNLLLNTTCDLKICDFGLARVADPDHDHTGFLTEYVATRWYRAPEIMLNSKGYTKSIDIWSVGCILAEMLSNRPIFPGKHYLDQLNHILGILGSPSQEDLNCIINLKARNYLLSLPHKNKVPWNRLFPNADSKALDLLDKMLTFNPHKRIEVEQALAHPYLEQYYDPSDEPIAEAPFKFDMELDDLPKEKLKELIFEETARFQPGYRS
row,SMILES,IC50
1,CC[C@@H](Nc1nc(NCc2ccccc2)c2ncn(C(C)C)c2n1)C(O)C(C)C (mixture of isomers),> 200 µM
2,CC[C@@H](Nc1nc(NCc2ccccc2)c2ncn(C(C)C)c2n1)C(C)O (mixture of isomers),43 µM
3,CC[C@@H](Nc1nc(NCc2cccnc2)c2ncn(C(C)C)c2n1)C(C)O (mixture of isomers),23 µM

# More lines, now with the values ahead:
row,IC50,SMILES
1,> 200 µM,CC[C@@H](Nc1nc(NCc2ccccc2)c2ncn(C(C)C)c2n1)C(O)C(C)(C)C (mixture of isomers)
2,29 µM,CC[C@H](Nc1nc(NCc2ccccc2)c2ncn(C(C)C)c2n1)C(C)O (mixture of isomers)
3,20 µM,CC[C@H](Nc1nc(NCc2cccnc2)c2ncn(C(C)C)c2n1)C(C)O (mixture of isomers)

# Test system: not listed separately
# Assay: Inhibition of PKA
# Conditions: not given
row,SMILES,IC50
1,CC[C@@H](Nc1nc(NCc2ccccc2)c2ncn(C(C)C)c2n1)C(O)C(C)C (mixture of isomers),92 µM
2,CC[C@@H](Nc1nc(NCc2ccccc2)c2ncn(C(C)C)c2n1)C(C)O (mixture of isomers),> 50 µM
3,CC[C@@H](Nc1nc(NCc2cccnc2)c2ncn(C(C)C)c2n1)C(C)O (mixture of isomers),> 200 µM

# Continued, values first:
row,IC50,SMILES
1,87 µM,CC[C@@H](Nc1nc(NCc2ccccc2)c2ncn(C(C)C)c2n1)C(O)C(C)(C)C (mixture of isomers)
2,> 50 µM,CC[C@H](Nc1nc(NCc2ccccc2)c2ncn(C(C)C)c2n1)C(C)O (mixture of isomers)
3,> 200 µM,CC[C@H](Nc1nc(NCc2cccnc2)c2ncn(C(C)C)c2n1)C(C)O (mixture of isomers)

# Test system: not listed separately
# Assay: Metabolic stability in mouse liver microsomes assessed as compound metabolized at 10 uM after 30 mins by LC-MS analysis
# Assay type: ADME, Microsome
# Conditions: read-out: Activity
row,SMILES,"metabolised at 0.5 h, 10 µM"
1,CC[C@@H](Nc1nc(NCc2ccccc2)c2ncn(C(C)C)c2n1)C(O)C(C)C (mixture of isomers),83%
2,CC[C@@H](Nc1nc(NCc2ccccc2)c2ncn(C(C)C)c2n1)C(C)O (mixture of isomers),91%
3,CC[C@@H](Nc1nc(NCc2cccnc2)c2ncn(C(C)C)c2n1)C(C)O (mixture of isomers),10%

# Further lines, results first:
row,"metabolised at 0.5 h, 10 µM",SMILES
1,79%,CC[C@@H](Nc1nc(NCc2ccccc2)c2ncn(C(C)C)c2n1)C(O)C(C)(C)C (mixture of isomers)
2,67%,CC[C@H](Nc1nc(NCc2ccccc2)c2ncn(C(C)C)c2n1)C(C)O (mixture of isomers)
3,33%,CC[C@H](Nc1nc(NCc2cccnc2)c2ncn(C(C)C)c2n1)C(C)O (mixture of isomers)

# Test system: CH1
# Assay: Growth inhibition of doxorubicin-resistant human CH1 cells after 96 hrs by sulforhodamine B assay
# Assay type: functional
# Conditions: CH1, 96 h
row,SMILES,GI50
1,CC[C@@H](Nc1nc(NCc2ccccc2)c2ncn(C(C)C)c2n1)C(O)C(C)C (mixture of isomers),19 µM
2,CC[C@@H](Nc1nc(NCc2ccccc2)c2ncn(C(C)C)c2n1)C(C)O (mixture of isomers),4.6 µM
3,CC[C@@H](Nc1nc(NCc2ccccc2)c2ncn(C(C)C)c2n1)C(O)C(C)(C)C (mixture of isomers),19 µM
4,CC[C@H](Nc1nc(NCc2ccccc2)c2ncn(C(C)C)c2n1)C(C)O (mixture of isomers),1.28 µM
5,CC[C@@H](Nc1nc(NCc2cccnc2)c2ncn(C(C)C)c2n1)C(C)O (mixture of isomers),5.2 µM
6,CC[C@H](Nc1nc(NCc2cccnc2)c2ncn(C(C)C)c2n1)C(C)O (mixture of isomers),1.5 µM

# Target: Cyclin-dependent kinase 4/cyclin D1 (Homo sapiens, UniProt P11802)
# Sequence (P11802 whole entry): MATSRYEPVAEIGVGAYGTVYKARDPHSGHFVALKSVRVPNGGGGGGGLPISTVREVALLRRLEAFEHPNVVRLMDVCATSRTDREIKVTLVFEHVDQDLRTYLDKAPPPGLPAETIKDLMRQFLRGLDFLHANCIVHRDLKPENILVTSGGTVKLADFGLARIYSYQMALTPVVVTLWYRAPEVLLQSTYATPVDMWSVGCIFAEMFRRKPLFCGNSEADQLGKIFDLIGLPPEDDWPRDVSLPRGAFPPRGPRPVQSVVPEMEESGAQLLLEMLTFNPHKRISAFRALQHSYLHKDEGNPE
# Sequence (P24385 whole entry, further chain): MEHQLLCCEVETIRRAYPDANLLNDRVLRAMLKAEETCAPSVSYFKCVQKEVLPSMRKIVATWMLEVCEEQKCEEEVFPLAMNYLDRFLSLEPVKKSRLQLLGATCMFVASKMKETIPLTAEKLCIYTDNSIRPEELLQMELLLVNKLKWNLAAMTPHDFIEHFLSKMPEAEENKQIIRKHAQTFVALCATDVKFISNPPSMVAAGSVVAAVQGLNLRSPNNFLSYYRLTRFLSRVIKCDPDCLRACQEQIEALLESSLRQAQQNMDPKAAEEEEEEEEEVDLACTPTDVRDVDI
# Assay: Inhibition of CDK4/cyclin D1
# Assay type: protein-complex assay
# Conditions: not given
row,SMILES,IC50
1,CC[C@@H](Nc1nc(NCc2ccccc2)c2ncn(C(C)C)c2n1)C(C)O (mixture of isomers),23 µM
2,CC[C@@H](Nc1nc(NCc2ccccc2)c2ncn(C(C)C)c2n1)C(O)C(C)(C)C (mixture of isomers),200 µM
3,CC[C@H](Nc1nc(NCc2ccccc2)c2ncn(C(C)C)c2n1)C(C)O (mixture of isomers),9 µM

# Test system: KM12
# Assay: Growth inhibition of human KM12 cells after 96 hrs by sulforhodamine B assay
# Assay type: functional
# Conditions: KM12, 96 h
row,SMILES,GI50
1,CC[C@@H](Nc1nc(NCc2ccccc2)c2ncn(C(C)C)c2n1)C(O)C(C)C (mixture of isomers),27 µM
2,CC[C@@H](Nc1nc(NCc2ccccc2)c2ncn(C(C)C)c2n1)C(C)O (mixture of isomers),5.4 µM
3,CC[C@@H](Nc1nc(NCc2ccccc2)c2ncn(C(C)C)c2n1)C(O)C(C)(C)C (mixture of isomers),17 µM
4,CC[C@H](Nc1nc(NCc2ccccc2)c2ncn(C(C)C)c2n1)C(C)O (mixture of isomers),1.9 µM
5,CC[C@@H](Nc1nc(NCc2cccnc2)c2ncn(C(C)C)c2n1)C(C)O (mixture of isomers),4.7 µM
6,CC[C@H](Nc1nc(NCc2cccnc2)c2ncn(C(C)C)c2n1)C(C)O (mixture of isomers),1.15 µM

# Test system: HT-29
# Assay: Growth inhibition of human HT-29 cells after 96 hrs by sulforhodamine B assay
# Assay type: functional
# Conditions: HT-29, 96 h
row,SMILES,GI50
1,CC[C@@H](Nc1nc(NCc2ccccc2)c2ncn(C(C)C)c2n1)C(O)C(C)C (mixture of isomers),13 µM
2,CC[C@@H](Nc1nc(NCc2ccccc2)c2ncn(C(C)C)c2n1)C(C)O (mixture of isomers),18 µM
3,CC[C@@H](Nc1nc(NCc2cccnc2)c2ncn(C(C)C)c2n1)C(C)O (mixture of isomers),4.7 µM

# Next, values leading:
row,GI50,SMILES
1,14.5 µM,CC[C@@H](Nc1nc(NCc2ccccc2)c2ncn(C(C)C)c2n1)C(O)C(C)(C)C (mixture of isomers)
2,4.9 µM,CC[C@H](Nc1nc(NCc2ccccc2)c2ncn(C(C)C)c2n1)C(C)O (mixture of isomers)
3,1.1 µM,CC[C@H](Nc1nc(NCc2cccnc2)c2ncn(C(C)C)c2n1)C(C)O (mixture of isomers)

# Test system: HCT-116
# Assay: Growth inhibition of human HCT116 cells after 96 hrs by sulforhodamine B assay
# Assay type: functional
# Conditions: HCT-116, 96 h
row,SMILES,GI50
1,CC[C@@H](Nc1nc(NCc2ccccc2)c2ncn(C(C)C)c2n1)C(O)C(C)C (mixture of isomers),22 µM
2,CC[C@@H](Nc1nc(NCc2ccccc2)c2ncn(C(C)C)c2n1)C(C)O (mixture of isomers),5.4 µM
3,CC[C@@H](Nc1nc(NCc2cccnc2)c2ncn(C(C)C)c2n1)C(C)O (mixture of isomers),2.5 µM

# Next, values leading:
row,GI50,SMILES
1,24 µM,CC[C@@H](Nc1nc(NCc2ccccc2)c2ncn(C(C)C)c2n1)C(O)C(C)(C)C (mixture of isomers)
2,1.45 µM,CC[C@H](Nc1nc(NCc2ccccc2)c2ncn(C(C)C)c2n1)C(C)O (mixture of isomers)
3,0.76 µM,CC[C@H](Nc1nc(NCc2cccnc2)c2ncn(C(C)C)c2n1)C(C)O (mixture of isomers)

# Test system: CH1
# Assay: Growth inhibition of doxorubicin-susceptible human CH1 cells after 96 hrs by sulforhodamine B assay
# Assay type: functional
# Conditions: CH1, 96 h
row,SMILES,GI50
1,CC[C@@H](Nc1nc(NCc2ccccc2)c2ncn(C(C)C)c2n1)C(O)C(C)C (mixture of isomers),23 µM
2,CC[C@@H](Nc1nc(NCc2ccccc2)c2ncn(C(C)C)c2n1)C(C)O (mixture of isomers),5 µM
3,CC[C@@H](Nc1nc(NCc2ccccc2)c2ncn(C(C)C)c2n1)C(O)C(C)(C)C (mixture of isomers),23 µM
4,CC[C@H](Nc1nc(NCc2ccccc2)c2ncn(C(C)C)c2n1)C(C)O (mixture of isomers),1.75 µM
5,CC[C@@H](Nc1nc(NCc2cccnc2)c2ncn(C(C)C)c2n1)C(C)O (mixture of isomers),4.5 µM
6,CC[C@H](Nc1nc(NCc2cccnc2)c2ncn(C(C)C)c2n1)C(C)O (mixture of isomers),0.92 µM

# Test system: A2780
# Assay: Growth inhibition of cisplatin-susceptible human A2780 cells after 96 hrs by sulforhodamine B assay
# Assay type: functional
# Conditions: A2780, 96 h
row,SMILES,GI50
1,CC[C@@H](Nc1nc(NCc2ccccc2)c2ncn(C(C)C)c2n1)C(O)C(C)C (mixture of isomers),17 µM
2,CC[C@@H](Nc1nc(NCc2ccccc2)c2ncn(C(C)C)c2n1)C(C)O (mixture of isomers),6.4 µM
3,CC[C@@H](Nc1nc(NCc2cccnc2)c2ncn(C(C)C)c2n1)C(C)O (mixture of isomers),3.1 µM

# Now from value to compound:
row,GI50,SMILES
1,18.5 µM,CC[C@@H](Nc1nc(NCc2ccccc2)c2ncn(C(C)C)c2n1)C(O)C(C)(C)C (mixture of isomers)
2,3.3 µM,CC[C@H](Nc1nc(NCc2ccccc2)c2ncn(C(C)C)c2n1)C(C)O (mixture of isomers)
3,0.78 µM,CC[C@H](Nc1nc(NCc2cccnc2)c2ncn(C(C)C)c2n1)C(C)O (mixture of isomers)

# Test system: A2780
# Assay: Growth inhibition of cisplatin-resistant human A2780 cells after 96 hrs by sulforhodamine B assay
# Assay type: functional
# Conditions: A2780, 96 h
row,SMILES,GI50
1,CC[C@@H](Nc1nc(NCc2ccccc2)c2ncn(C(C)C)c2n1)C(O)C(C)C (mixture of isomers),21 µM
2,CC[C@@H](Nc1nc(NCc2ccccc2)c2ncn(C(C)C)c2n1)C(C)O (mixture of isomers),3.8 µM
3,CC[C@@H](Nc1nc(NCc2cccnc2)c2ncn(C(C)C)c2n1)C(C)O (mixture of isomers),4.4 µM

# Second part, the compound after the results:
row,GI50,SMILES
1,23 µM,CC[C@@H](Nc1nc(NCc2ccccc2)c2ncn(C(C)C)c2n1)C(O)C(C)(C)C (mixture of isomers)
2,3.4 µM,CC[C@H](Nc1nc(NCc2ccccc2)c2ncn(C(C)C)c2n1)C(C)O (mixture of isomers)
3,1 µM,CC[C@H](Nc1nc(NCc2cccnc2)c2ncn(C(C)C)c2n1)C(C)O (mixture of isomers)

# Target: Cyclin-dependent kinase 1/cyclin B1 (Homo sapiens, UniProt P06493)
# Sequence (P06493 whole entry): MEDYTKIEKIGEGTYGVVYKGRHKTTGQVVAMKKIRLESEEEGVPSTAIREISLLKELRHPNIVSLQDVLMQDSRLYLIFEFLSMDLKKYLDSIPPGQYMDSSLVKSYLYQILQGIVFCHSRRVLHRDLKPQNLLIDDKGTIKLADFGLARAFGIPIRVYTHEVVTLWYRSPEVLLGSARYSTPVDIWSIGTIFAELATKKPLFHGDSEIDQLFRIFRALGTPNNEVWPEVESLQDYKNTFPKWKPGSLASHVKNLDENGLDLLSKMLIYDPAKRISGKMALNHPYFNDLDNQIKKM
# Sequence (P14635 whole entry, further chain): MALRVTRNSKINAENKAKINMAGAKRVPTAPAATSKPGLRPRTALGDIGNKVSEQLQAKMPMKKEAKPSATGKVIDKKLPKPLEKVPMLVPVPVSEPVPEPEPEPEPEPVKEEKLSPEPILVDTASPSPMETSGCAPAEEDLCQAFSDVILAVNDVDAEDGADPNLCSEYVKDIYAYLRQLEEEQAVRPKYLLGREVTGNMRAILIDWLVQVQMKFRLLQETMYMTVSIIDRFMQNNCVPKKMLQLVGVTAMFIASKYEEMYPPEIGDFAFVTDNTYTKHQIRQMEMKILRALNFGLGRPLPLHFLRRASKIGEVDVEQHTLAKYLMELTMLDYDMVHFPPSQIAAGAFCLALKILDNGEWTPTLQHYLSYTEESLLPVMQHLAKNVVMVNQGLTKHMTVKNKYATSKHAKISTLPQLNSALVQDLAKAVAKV
# Assay: Inhibition of CDK1/cyclin B
# Assay type: protein-complex assay
# Conditions: not given
row,SMILES,IC50
1,CC[C@@H](Nc1nc(NCc2cccnc2)c2ncn(C(C)C)c2n1)C(C)O (mixture of isomers),4.9 µM
2,CC[C@H](Nc1nc(NCc2cccnc2)c2ncn(C(C)C)c2n1)C(C)O (mixture of isomers),2.2 µM

# Target: Cyclin-dependent kinase 7/ cyclin H (Homo sapiens, UniProt P50613)
# Sequence (P51946 whole entry): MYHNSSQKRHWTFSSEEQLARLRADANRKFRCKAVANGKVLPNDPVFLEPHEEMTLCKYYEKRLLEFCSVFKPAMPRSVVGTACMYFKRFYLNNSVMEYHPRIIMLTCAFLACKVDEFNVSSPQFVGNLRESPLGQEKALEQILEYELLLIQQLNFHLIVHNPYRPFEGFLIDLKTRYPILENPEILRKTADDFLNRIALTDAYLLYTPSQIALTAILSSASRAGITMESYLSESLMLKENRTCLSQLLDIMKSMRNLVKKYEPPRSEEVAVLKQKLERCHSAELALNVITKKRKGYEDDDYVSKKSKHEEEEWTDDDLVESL
# Sequence (P50613 whole entry): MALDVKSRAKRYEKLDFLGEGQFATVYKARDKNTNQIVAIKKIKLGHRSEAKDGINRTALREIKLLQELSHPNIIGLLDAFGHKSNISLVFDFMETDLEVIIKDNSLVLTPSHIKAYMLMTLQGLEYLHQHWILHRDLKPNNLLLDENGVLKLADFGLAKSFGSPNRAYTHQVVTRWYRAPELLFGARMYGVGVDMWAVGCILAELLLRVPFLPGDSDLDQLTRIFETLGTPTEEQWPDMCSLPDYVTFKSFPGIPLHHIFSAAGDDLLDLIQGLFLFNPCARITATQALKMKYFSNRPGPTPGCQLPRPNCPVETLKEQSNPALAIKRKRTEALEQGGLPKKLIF
# Assay: Inhibition of CDK7/cyclin H
# Assay type: protein-complex assay
# Conditions: not given
row,SMILES,IC50
1,CC[C@@H](Nc1nc(NCc2ccccc2)c2ncn(C(C)C)c2n1)C(C)O (mixture of isomers),0.39 µM
2,CC[C@H](Nc1nc(NCc2ccccc2)c2ncn(C(C)C)c2n1)C(C)O (mixture of isomers),0.69 µM
